From ChEMBL document CHEMBL5678818, “Discovery of potent SOS1 inhibitors that block RAS activation via disruption of the RAS-SOS1 interaction” (Proc Natl Acad Sci U S A, 2019) come the findings set out here.

The structures appear in SMILES notation.

The subject of assay [1] is Tyrosine-protein kinase ABL1 (Homo sapiens), P00519 [H396P]. Description: Inhibition of nonphosphorylated ABL1 H396P mutant (unknown origin) assessed as residual activity at 100 nM by KINOMEscan analysis relative to control.
Assay [2] addresses T1, Mitogen-activated protein kinase kinase kinase 2 (Homo sapiens) (UniProt Q9Y2U5).
T1 sequence (whole entry): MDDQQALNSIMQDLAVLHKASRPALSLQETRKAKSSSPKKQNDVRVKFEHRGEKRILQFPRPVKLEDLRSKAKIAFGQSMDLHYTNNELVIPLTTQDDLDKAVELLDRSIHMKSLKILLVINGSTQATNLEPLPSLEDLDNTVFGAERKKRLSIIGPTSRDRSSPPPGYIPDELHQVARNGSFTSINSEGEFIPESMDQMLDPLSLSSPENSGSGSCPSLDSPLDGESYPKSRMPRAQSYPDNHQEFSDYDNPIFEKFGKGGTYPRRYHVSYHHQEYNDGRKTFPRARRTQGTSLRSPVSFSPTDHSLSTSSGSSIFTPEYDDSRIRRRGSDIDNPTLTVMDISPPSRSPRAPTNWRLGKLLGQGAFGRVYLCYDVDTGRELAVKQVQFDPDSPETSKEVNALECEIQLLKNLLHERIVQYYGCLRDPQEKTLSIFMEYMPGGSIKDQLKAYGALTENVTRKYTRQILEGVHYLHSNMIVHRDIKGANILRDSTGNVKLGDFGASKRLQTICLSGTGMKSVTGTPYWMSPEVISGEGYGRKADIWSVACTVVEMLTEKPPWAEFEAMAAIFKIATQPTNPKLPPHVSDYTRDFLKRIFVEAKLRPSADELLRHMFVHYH
Description: Inhibition of MAP3K2 (unknown origin) assessed as residual activity at 100 nM by KINOMEscan analysis relative to control.

Assay [3] addresses T2, NUAK family SNF1-like kinase 2 (Homo sapiens) (UniProt Q9H093).
T2 sequence (whole entry): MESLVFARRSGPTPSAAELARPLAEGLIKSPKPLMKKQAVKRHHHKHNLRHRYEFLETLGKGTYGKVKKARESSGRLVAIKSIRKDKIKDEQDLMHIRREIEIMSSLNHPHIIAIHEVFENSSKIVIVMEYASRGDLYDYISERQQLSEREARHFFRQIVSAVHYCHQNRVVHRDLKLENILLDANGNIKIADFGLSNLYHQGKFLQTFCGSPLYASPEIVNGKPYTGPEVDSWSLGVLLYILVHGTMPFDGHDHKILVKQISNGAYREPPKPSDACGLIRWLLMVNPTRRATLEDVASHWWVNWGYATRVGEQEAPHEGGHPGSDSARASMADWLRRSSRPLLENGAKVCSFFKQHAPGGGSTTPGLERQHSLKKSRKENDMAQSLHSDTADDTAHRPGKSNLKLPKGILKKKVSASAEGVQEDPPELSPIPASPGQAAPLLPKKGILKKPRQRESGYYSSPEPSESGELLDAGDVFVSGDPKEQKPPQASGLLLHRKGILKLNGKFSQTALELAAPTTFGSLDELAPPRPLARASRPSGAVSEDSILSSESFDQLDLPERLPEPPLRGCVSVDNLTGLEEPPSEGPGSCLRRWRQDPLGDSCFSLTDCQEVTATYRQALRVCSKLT
Description: Inhibition of SNARK (unknown origin) assessed as residual activity at 100 nM by KINOMEscan analysis relative to control.

For assay [4], the target named is T3, Mitogen-activated protein kinase kinase kinase 19 (Homo sapiens) (UniProt Q56UN5).
T3 sequence (whole entry): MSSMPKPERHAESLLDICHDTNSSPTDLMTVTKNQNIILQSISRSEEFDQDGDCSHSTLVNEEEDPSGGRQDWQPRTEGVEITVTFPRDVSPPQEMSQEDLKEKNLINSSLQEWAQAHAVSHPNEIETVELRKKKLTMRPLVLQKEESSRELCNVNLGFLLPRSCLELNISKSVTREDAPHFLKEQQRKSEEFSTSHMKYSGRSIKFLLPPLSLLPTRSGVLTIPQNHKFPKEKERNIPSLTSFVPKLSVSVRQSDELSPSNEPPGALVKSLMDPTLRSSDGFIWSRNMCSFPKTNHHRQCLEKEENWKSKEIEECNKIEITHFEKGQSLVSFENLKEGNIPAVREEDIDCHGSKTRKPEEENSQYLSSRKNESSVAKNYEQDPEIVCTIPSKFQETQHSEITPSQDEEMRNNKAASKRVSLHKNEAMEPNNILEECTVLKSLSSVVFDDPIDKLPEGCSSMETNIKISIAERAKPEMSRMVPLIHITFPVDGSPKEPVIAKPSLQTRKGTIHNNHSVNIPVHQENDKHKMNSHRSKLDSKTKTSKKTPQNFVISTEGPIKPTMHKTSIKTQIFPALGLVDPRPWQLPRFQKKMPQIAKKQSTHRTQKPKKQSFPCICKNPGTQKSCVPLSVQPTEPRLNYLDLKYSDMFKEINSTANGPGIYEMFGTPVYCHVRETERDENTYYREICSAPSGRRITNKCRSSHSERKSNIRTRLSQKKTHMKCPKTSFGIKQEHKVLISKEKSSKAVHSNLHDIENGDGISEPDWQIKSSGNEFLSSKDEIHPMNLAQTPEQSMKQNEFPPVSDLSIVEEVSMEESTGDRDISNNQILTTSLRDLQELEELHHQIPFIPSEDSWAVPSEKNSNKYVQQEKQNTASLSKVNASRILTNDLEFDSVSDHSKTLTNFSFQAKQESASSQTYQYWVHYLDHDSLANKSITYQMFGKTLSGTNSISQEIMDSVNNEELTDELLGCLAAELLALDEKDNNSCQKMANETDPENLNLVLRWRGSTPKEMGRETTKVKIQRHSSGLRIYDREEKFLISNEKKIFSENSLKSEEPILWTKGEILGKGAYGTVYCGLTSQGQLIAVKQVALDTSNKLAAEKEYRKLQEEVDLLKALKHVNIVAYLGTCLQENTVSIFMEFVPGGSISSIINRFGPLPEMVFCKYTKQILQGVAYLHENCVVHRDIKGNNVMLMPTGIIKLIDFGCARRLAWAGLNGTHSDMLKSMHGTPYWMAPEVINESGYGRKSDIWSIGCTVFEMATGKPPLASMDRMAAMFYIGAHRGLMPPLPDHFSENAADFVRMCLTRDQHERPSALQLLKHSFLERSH
Description: Inhibition of YSK4 (unknown origin) assessed as residual activity at 100 nM by KINOMEscan analysis relative to control.

As for `COc1cc2ncnc(N[C@H](C)c3cccc4ccccc34)c2cc1OC`, the Activity in assay [1] is 100%; in assay [2] it was 87%; in assay [3], 92%; in assay [4] it was 92%.
